Test results from patent publication US7816371B2, “Bicycloheteroaryl compounds as P2X7 modulators and uses thereof” (Renovis, Inc., priority 2006, dated 2010).

Target: T1, P2X7 receptor (Homo sapiens, UniProt Q99572)
T1 construct: host or cells: THP-1 cells differentiated with LPS and IFN-γ
T1 sequence (Q99572 1-595): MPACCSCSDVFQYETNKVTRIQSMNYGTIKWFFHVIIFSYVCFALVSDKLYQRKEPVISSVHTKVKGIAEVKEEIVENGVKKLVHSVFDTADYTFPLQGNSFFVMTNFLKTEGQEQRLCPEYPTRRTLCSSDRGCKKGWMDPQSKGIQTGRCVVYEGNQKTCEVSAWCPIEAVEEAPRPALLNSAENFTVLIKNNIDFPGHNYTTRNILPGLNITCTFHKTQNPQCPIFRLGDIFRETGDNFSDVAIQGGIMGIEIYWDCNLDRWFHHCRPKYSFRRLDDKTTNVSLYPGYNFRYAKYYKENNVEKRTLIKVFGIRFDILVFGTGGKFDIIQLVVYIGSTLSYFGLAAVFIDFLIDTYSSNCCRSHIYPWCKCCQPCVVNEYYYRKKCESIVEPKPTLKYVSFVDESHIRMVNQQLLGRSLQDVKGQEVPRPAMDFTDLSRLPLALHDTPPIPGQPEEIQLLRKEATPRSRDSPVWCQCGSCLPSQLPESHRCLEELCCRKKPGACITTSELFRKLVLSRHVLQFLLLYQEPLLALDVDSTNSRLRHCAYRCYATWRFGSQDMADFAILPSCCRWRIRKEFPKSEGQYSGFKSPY
Experiment: IL-1β release assay in differentiated THP-1 cells stimulated with BzATP (Example 9); % inhibition and IC50
Type: cell-based
Conditions: BzATP 250 uM; for IC50: THP-1 cells differentiated with LPS and IFN-γ, 30 min pretreatment, IL-1β by ELISA
Method: The cells are then pretreated for 30 minutes with the compound of interest at the appropriate concentration in RPMI media containing 100 IU/mL penicillin, 100 ug/mL streptomycin. […] 30 uL of cell supernatant is then collected and IL-1β levels determined via ELISA (R&D systems Cat. # HSLB50) according to manufacturer's recommendations using the Tecan Safire plate reader. Background adjusted IL-1β levels of drug treated and non-treated cells are used to calculate the percent inhibition.
The compounds set forth in Table 1 were tested for activity in a cellular model as described herein.

Compound	IC50	inhibition at 0.3 µM (0.3 μM compound, differentiated THP-1 cells, read-out: IL-1β % Inhib. @ 0.3 μM)
CC(C)[C@H](CO)n1ccc2c(NC(=O)[C@H](C)c3ccc(Cl)cc3)cccc2c1=O [Compound 273, (R)-2-(4-Chloro-phenyl)-N-[(R)-2-(1-hydroxymethyl-2-methyl-propyl)-1-oxo-1,2-dihydro-isoquinolin-5-yl]-propionamide]	3.54 nM	
C[C@H](CO)n1ccc2c(NC(=O)Cc3ccc(Cl)c(F)c3)cccc2c1=O [Compound 330, 2-(4-Chloro-3-fluorophenyl)-N-[2-((R)-2-hydroxy-1-methyl-ethyl)-1-oxo-1,2-dihydro-isoquinolin-5-yl]-acetamide]	13.3 nM	
O=C(Cc1cc(C(F)(F)F)ccc1Cl)Nc1cccc2c(=O)n(CCO)ccc12 [Compound 67]	> 1000 nM	
C[C@H](CO)n1ccc2c(NC(=O)Cc3ccc(F)c(C(F)(F)F)c3)cccc2c1=O [Compound 339]	10.5 nM	
C[C@H](C(N)=O)n1ccc2c(NC(=O)Cc3ccc(F)cc3C(F)(F)F)cccc2c1=O [Compound 295]	184 nM	
C[C@H](C(N)=O)n1ccc2c(NC(=O)c3cccc4ncccc34)cccc2c1=O [Compound 272]	> 1000 nM	
Cc1ccc2c(=O)n([C@H](C)CO)ccc2c1NC(=O)Cc1ccc(F)c(C(F)(F)F)c1 [Compound 394]	0.74 nM	
C[C@@H](C(N)=O)n1ccc2c(NC(=O)Cc3ccc(Cl)c(F)c3)cccc2c1=O [Compound 352]	32.7 nM	
C[C@H](C(N)=O)n1ccc2c(NC(=O)Cc3ccc(C(F)(F)F)cc3C(F)(F)F)cccc2c1=O [Compound 380]	64.3 nM	
C[C@H](C(N)=O)n1ccc2c(NC(=O)Cc3ccc(C(F)(F)F)cc3)c(Cl)ccc2c1=O [Compound 316, (R)-2-{6-Chloro-1-oxo-5-[2-(4-trifluoromethyl-phenyl)-acetylamino]-1H-isoquinolin-2-yl}-propionamide]	2.29 nM	51 to 75%
C[C@H](C(N)=O)n1ccc2c(NC(=O)Cc3ccc(Cl)nc3)cccc2c1=O [Compound 312]	> 1000 nM	
C[C@H](C(N)=O)n1ccc2c(NC(=O)Cc3c(F)cccc3C(F)(F)F)cccc2c1=O [Compound 286]	374 nM	
O=C(Cc1ccc(Cl)cc1Cl)Nc1cccc2c(=O)n(C(CO)CO)ccc12 [Compound 82]	228 nM	
C[C@H](C(N)=O)n1ccc2c(NC(=O)Cc3cccc(C(F)(F)F)c3F)cccc2c1=O [Compound 285]	6.62 nM	
O=C(CCc1ccccc1)Nc1cccc2c(=O)n(CCO)ccc12 [Compound 3]	272 nM	
CC(C(=O)Nc1cccc2c(=O)n([C@H](C)C(N)=O)ccc12)c1ccc(F)cc1 (stereo partly drawn) [Compound 299]	24.8 nM	
C[C@@H](C(=O)Nc1cccc2c(=O)n([C@@H](C)CO)ccc12)c1ccc(Cl)c(Cl)c1 [Compound 317]	93.7 nM	
O=C(Cc1cccc(C(F)(F)F)c1F)Nc1c(NCCO)ccc2c(=O)n(CCO)ccc12 [Compound 385, 2-(2-Fluoro-3-trifluoromethyl-phenyl)-N-[2-(2-hydroxy-ethyl)-6-(2-hydroxy-ethylamino)-1-oxo-1,2-dihydro-isoquinolin-5-yl]-acetamide]	> 1000 nM	
CC(C(=O)Nc1cccc2c(=O)n([C@@H](C)C(N)=O)ccc12)c1ccc(Cl)c(C(F)(F)F)c1 (stereo partly drawn) [Compound 356]	15.5 nM	
C[C@H](C(=O)Nc1cccc2c(=O)n([C@@H](C(N)=O)c3ccccc3)ccc12)c1ccc(Cl)cc1 [Compound 279, (S)—N-[2-((R)-Carbamoyl-phenyl-methyl)-1-oxo-1,2-dihydro-isoquinolin-5-yl]-2-(4-chloro-phenyl)-propionamide]	106 nM	
CC(C)[C@H](C(=O)NC1CC1)n1ccc2c(NC(=O)[C@@H](C)c3ccc(Cl)cc3)cccc2c1=O [Compound 281, (R)-2-{5-[(S)-2-(4-Chloro-phenyl)-propionylamino]-1-oxo-1H-isoquinolin-2-yl}-N-cyclopropyl-3-methyl-butyramide]	7.39 nM	
CC(C)(CO)n1ccc2c(NC(=O)Cc3ccc(Cl)cc3F)cccc2c1=O [Compound 374]	175 nM	

Now from value to molecule, other results behind:

IC50	Compound	inhibition at 0.3 µM (0.3 μM compound, differentiated THP-1 cells, read-out: IL-1β % Inhib. @ 0.3 μM)
332 nM	C[C@H](C(N)=O)n1ccc2c(NC(=O)Cc3ccc(C#N)cc3)cccc2c1=O [Compound 287]	
258 nM	CC(C)(CO)n1ccc2c(NC(=O)Cc3ccc(Cl)c(F)c3)cccc2c1=O [Compound 373]	
> 1000 nM	CCC(C(=O)Nc1cccc2c(=O)n(CCO)ccc12)c1ccccc1 (stereo not drawn) [Compound 74]	
206 nM	C[C@H](CO)n1ccc2c(NC(=O)Cc3ccc(F)c(Cl)c3)cccc2c1=O [Compound 329]	
9.15 nM	CC(C(=O)Nc1cccc2c(=O)n([C@H](C)C(N)=O)ccc12)c1cccc(C(F)(F)F)c1F (stereo partly drawn) [Compound 337]	
39 nM	O=C(Cc1ccc(Cl)c(C(F)(F)F)c1)Nc1cccc2c(=O)n(CC3CCNCC3)ccc12 [Compound 257, 2-(4-Chloro-3-trifluoromethyl-phenyl)-N-(1-oxo-2-piperidin-4-ylmethyl-1,2-dihydro-isoquinolin-5-yl)-acetamide]	
763 nM	NC(=O)[C@H](CO)n1ccc2c(NC(=O)Cc3ccc(Cl)c(Cl)c3)cccc2c1=O [Compound 253]	
7.91 nM	C[C@H](C(N)=O)n1ccc2c(NC(=O)Cc3ccc(C(F)(F)F)cc3)cccc2c1=O [Compound 298]	
30.3 nM	O=C(Cc1ccc(Cl)c(Cl)c1)Nc1cccc2c(=O)n(CCO)ccc12 [Compound 8]	
39.4 nM	C[C@H](CO)n1ccc2c(NC(=O)Cc3ccc(Cl)cc3F)cccc2c1=O [Compound 327]	
> 1000 nM	COc1ccc(CC(=O)Nc2cccc3c(=O)n(CCO)ccc23)cc1 [Compound 2]	
> 1000 nM	CC(C)C(C(=O)Nc1cccc2c(=O)n(CCO)ccc12)c1ccc(Cl)cc1 (stereo not drawn) [Compound 78]	
9.31 nM	C[C@H](CO)n1ccc2c(NC(=O)Cc3ccc(C(F)(F)F)c(F)c3)cccc2c1=O [Compound 335]	
25.1 nM	C[C@H](CO)n1ccc2c(NC(=O)Cc3ccc(C(F)(F)F)cc3)cccc2c1=O [Compound 319]	
20.6 nM	C[C@H](C(N)=O)n1ccc2c(NC(=O)Cc3ccc(F)cc3Cl)cccc2c1=O [Compound 291]	
14.3 nM	C[C@H](CO)n1ccc2c(NC(=O)Cc3ccc(C(F)(F)F)cc3C(F)(F)F)cccc2c1=O [Compound 361]	
572 nM	C[C@H](C(=O)Nc1cccc2c(=O)n([C@H](C)C(=O)O)ccc12)c1ccc(Cl)cc1 [Compound 322, (R)-2-{5-[(S)-2-(4-Chloro-phenyl)-propionylamino]-1-oxo-1H-isoquinolin-2-yl}-propionic acid]	
161 nM	O=C(Cc1ccc(C(F)(F)F)cc1C(F)(F)F)Nc1cccc2c(=O)n(CCO)ccc12 [Compound 230]	
3.19 nM	CC(C(=O)Nc1cccc2c(=O)n([C@H](C)C(N)=O)ccc12)c1ccc(Cl)c(C(F)(F)F)c1 (stereo partly drawn) [Compound 267, (R)-2-{5-[2-(4-Chloro-3-trifluoromethyl-phenyl)-propionylamino]-1-oxo-1H-isoquinolin-2-yl}-propionamide]	
5.84 nM	C[C@H](C(N)=O)n1ccc2c(NC(=O)Cc3ccc(F)c(C(F)(F)F)c3)cccc2c1=O [Compound 304]	
43.1 nM	C[C@H](CO)n1ccc2c(NC(=O)Cc3ccc(C(F)(F)F)cc3F)cccc2c1=O [Compound 359]	
4.83 nM	NC(=O)Cn1ccc2c(NC(=O)Cc3ccc(Cl)c(C(F)(F)F)c3)cccc2c1=O [Compound 249, 2-{5-[2-(4-Chloro-3-trifluoromethyl-phenyl)-acetylamino]-1-oxo-1H-isoquinolin-2-yl}-acetamide]	
